For data set [1], the system named is MDR ETEC strain (clinical isolate). Briefly: Resistance of the MDR ETEC strain to conventional antibiotics. The format is cell-based, Escherichia coli. Particulars: method not given. The method, then:
(§1) The MDR ETEC strain used in this study was a clinical isolate kindly provided by our co-author, Dr. Hui-Wen Chang from Department of Veterinary Medicine and Graduate Institute of Molecular and Comparative Pathobiology, School of Veterinary Medicine, National Taiwan University. […] Glycerol stocks (20%, v/v) were maintained at −86 °C for long-term storage.

The subject of data set [2] is MDR ETEC (multidrug-resistant enterotoxigenic Escherichia coli). Conditions: MDR ETEC clinical isolate; 96-well microtiter plates, 10^4 CFU/mL inoculum, 48 h at 37 °C, absorbance 600 nm; lowest concentration that completely inhibits visible growth. The method, then: as §1
Cultures were examined for growth after 48 h incubation at 37 °C, and the absorbance at 600 nm was measured.

A short description of data set [3]: Hemolytic activity, minimal hemolysis concentration (MHC). Conditions: method not described. It is filed as cell-based.
The subject of data set [4] is intestinal porcine epithelial cell line-1 (IPEC-1). Briefly: Cell viability (MTT) assay, IPEC-1. Particulars: IPEC-1, 24 h exposure. It is filed as cell-based. The method, then:
(§2) The IPEC-1 and IPEC-J2 cell lines were kindly provided by Dr. Je-Ruei Liu from Institute of Biotechnology and Department of Animal Science and Technology, National Taiwan University. The culture conditions and protocols were according to Koh et al. with slight modifications. Both IPEC-1 and IPEC-J2 cells were seeded on 9-cm cell culture dishes and were cultured and maintained in Dulbecco’s modified Eagle medium (DMEM)/nutrient mixture F-12 (GeneDireX, Taipei, Taiwan) supplemented with 10% fetal bovine serum (FBS; Hyclone, Cytiva, Washington DC, USA). The cultures were maintained in a humidified incubator in an atmosphere of 5% CO2 at 37 °C. After 4 to 5 days of culturing, both cell lines became confluent. Cell monolayers were washed with 3–5 mL Dulbecco’s phosphate buffered saline (DPBS, Amresco, Solon, OH, USA) and trypsinized with 1× trypsin-EDTA. The detached cells were pelleted at 200× g for 5 min, re-suspended in antibiotic-free medium, and used for subsequent adherence assays. […]
(§3) The viability of both IPEC-1 and IPEC-J2 cells after treated with AMP Q4-15a-1 was evaluated using 3-(4,5-dimethylthiazol-2-yl)-2,5-diphenyltetrazolium bromide (MTT, Amresco, Solon, OH, USA) assays performed in triplicate in three independent experiments. […] Absorbance at 570 nm of the maximum was detected by a multimode microplate reader SpectraMax M2 (Molecular Devices, San Jose, CA, USA). […]

The test system of data set [5] is intestinal porcine epithelial cell line-J2 (IPEC-J2). Briefly: Cell viability (MTT) assay, IPEC-J2. It is filed as cell-based. Particulars: IPEC-J2, 24 h exposure. As for the experimental part: as §2, §3
Data set [6] deals with Acinetobacter baumannii biofilms. Conditions: 32 and 64 μg/mL; cited from earlier work. An excerpt:
Biofilm is a microbial community that adheres to the surface of various substances and encapsulates themselves in an autologous extracellular matrix. It is a critical issue to manage biofilms in clinical treatment. The matrix of the biofilm plays an important role in the mechanism of resistance to antibiotics, which constitutes a barrier to delay or prevent the interaction of antibiotics with microbial cells, depending on the extracellular polymeric substances and the charge of antimicrobial agents. The latter can be isolated or repelled, thereby reducing its effect on biofilms [[36],[3 ...

Ends that are not written are not given here.

Consider `CC1(C)S[C@@H]2[C@H](NC(=O)[C@H](N)c3ccccc3)C(=O)N2[C@H]1C(=O)O` [ampicillin], for which the “Susceptibility of the MDR ETEC strain” value in data set [1] is on record as “resistant”. On to `CC1=C(C(=O)O)N2C(=O)[C@@H](NC(=O)[C@H](N)c3ccc(O)cc3)[C@H]2SC1` [cefadroxil], for which the “Susceptibility of the MDR ETEC strain” value in data set [1] is “resistant”. Take `C=CC1=C(C(=O)O)N2C(=O)[C@@H](NC(=O)/C(=N\OCC(=O)O)c3csc(N)n3)[C@H]2SC1` [cefixime]: the “Susceptibility of the MDR ETEC strain” value in data set [1] is “resistant”. Same read-out and setting: for `CC(C)(O/N=C(\C(=O)N[C@@H]1C(=O)N2C(C(=O)[O-])=C(C[n+]3ccccc3)CS[C@H]12)c1csc(N)n1)C(=O)O` [ceftazidime] the value was “resistant”. As for `CO/N=C(\C(=O)N[C@@H]1C(=O)N2C(C(=O)O)=C(COC(N)=O)CS[C@H]12)c1ccco1` [cefuroxime], the “Susceptibility of the MDR ETEC strain” value in data set [1] was “resistant”. As to `CC(=O)OCC1=C(C(=O)O)N2C(=O)[C@@H](NC(=O)Cc3cccs3)[C@H]2SC1` [cephalothin], the “Susceptibility of the MDR ETEC strain” value in data set [1] is “resistant”.

Regarding `O=C(N[C@H](CO)[C@H](O)c1ccc([N+](=O)[O-])cc1)C(Cl)Cl` [chloramphenicol], the “Susceptibility of the MDR ETEC strain” value in data set [1] is “resistant”.

With `C[C@H]1c2cccc(O)c2C(=O)C2=C(O)[C@]3(O)C(=O)C(C(N)=O)=C(O)[C@@H](N(C)C)[C@@H]3[C@@H](O)[C@@H]21` [doxycycline], the “Susceptibility of the MDR ETEC strain” value in data set [1] is “resistant”. For `CCN1CCN(c2cc3c(cc2F)c(=O)c(C(=O)O)cn3C2CC2)CC1` [enrofloxacin], the “Susceptibility of the MDR ETEC strain” value in data set [1] is given as “resistant”. Consider `CC1CCc2cc(F)cc3c(=O)c(C(=O)O)cn1c23` (stereo not drawn) [flumequine], for which, in data set [1], the “Susceptibility of the MDR ETEC strain” value is “resistant”. On to `CNC(C)C1CCC(N)C(OC2C(N)CC(N)C(OC3OCC(C)(O)C(NC)C3O)C2O)O1` (stereo not drawn) [gentamicin], for which, in data set [1], the “Susceptibility of the MDR ETEC strain” value was “resistant”. Same read-out and setting: for `NC[C@H]1O[C@H](O[C@H]2[C@H](O)[C@@H](O[C@H]3O[C@H](CO)[C@@H](O)[C@H](N)[C@H]3O)[C@H](N)C[C@@H]2N)[C@H](O)[C@@H](O)[C@@H]1O` [kanamycin] the value was “resistant”; for `CN(C)c1ccc(O)c2c1C[C@H]1C[C@H]3[C@H](N(C)C)C(O)=C(C(N)=O)C(=O)[C@@]3(O)C(O)=C1C2=O` [minocycline], “resistant”. Take `CCn1cc(C(=O)O)c(=O)c2ccc(C)nc21` [nalidixic acid]: the “Susceptibility of the MDR ETEC strain” value in data set [1] was “resistant”. With `O=C1CN(/N=C/c2ccc([N+](=O)[O-])o2)C(=O)N1` [nitrofurantoin], the “Susceptibility of the MDR ETEC strain” value in data set [1] is given as “moderately susceptible”.

`CCn1cc(C(=O)O)c(=O)c2cc(F)c(N3CCNCC3)cc21` [norfloxacin]: in data set [1], the “Susceptibility of the MDR ETEC strain” value is on record as “resistant”.

Turning to `CC1COc2c(N3CCN(C)CC3)c(F)cc3c(=O)c(C(=O)O)cn1c23` (stereo not drawn) [ofloxacin], the “Susceptibility of the MDR ETEC strain” value in data set [1] is “resistant”.

Regarding `CCN1CCN(C(=O)N[C@@H](C(=O)N[C@@H]2C(=O)N3[C@@H]2SC(C)(C)[C@@H]3C(=O)O)c2ccccc2)C(=O)C1=O` [piperacillin], in data set [1], the “Susceptibility of the MDR ETEC strain” value is given as “resistant”. Regarding `[H]/N=C(/N)N[C@H]1[C@H](O)[C@@H](O)[C@H](O[C@@H]2O[C@@H](C)[C@](O)(C=O)[C@H]2O[C@@H]2O[C@@H](CO)[C@H](O)[C@@H](O)[C@@H]2NC)[C@@H](N/C(N)=N\[H])[C@@H]1O` [streptomycin], the “Susceptibility of the MDR ETEC strain” value in data set [1] was “resistant”. Consider `CN(C)[C@@H]1C(O)=C(C(N)=O)C(=O)[C@@]2(O)C(O)=C3C(=O)c4c(O)cccc4[C@@](C)(O)[C@H]3C[C@@H]12` [tetracycline], for which the “Susceptibility of the MDR ETEC strain” value in data set [1] is recorded as “resistant”. As for `NC[C@H]1O[C@H](O[C@H]2[C@H](O)[C@@H](O[C@H]3O[C@H](CO)[C@@H](O)[C@H](N)[C@H]3O)[C@H](N)C[C@@H]2N)[C@H](N)C[C@@H]1O` [tobramycin], the “Susceptibility of the MDR ETEC strain” value in data set [1] is given as “resistant”. For the compound GANAAKKFATIAKKFINYLW [GW-Q4], in data set [2], the MIC is 32 µg/mL. Also, in data set [3], the “MHC (minimal hemolysis concentration)” value was 128 µg/mL. As to GANAAKKFATIAKKFINYLW-NH2 [GW-Q4a], the minimum inhibitory concentration (MIC) in data set [2] turned out to be 8 µg/mL. Moreover, the “MHC (minimal hemolysis concentration)” value in data set [3] worked out at 32 µg/mL. In turn, KKFATIAKKFINKLW [Peptide Q4-15-1] registered an MIC in data set [2] of 8 µg/mL. In data set [3], the “MHC (minimal hemolysis concentration)” value was determined as 256 µg/mL.

In data set [2], KKFATIAKKFINKLW-NH2 [Peptide Q4-15a-1] registered an MIC of 4 µg/mL. The “IC20 (cell viability, MTT)” value in data set [4] and in data set [5] was “around 100 μg/mL” in each case. Besides, the “MHC (minimal hemolysis concentration)” value in data set [3] is 256 µg/mL.

In data set [2], KKFATIAKKFINWLW [Peptide Q4-15-2] came in with a minimal inhibitory concentration (MIC) of 4 µg/mL. The “MHC (minimal hemolysis concentration)” value in data set [3] worked out at 32 µg/mL. The compound KKFATIAKKFINWLW-NH2 [Peptide Q4-15a-2] returned an MIC in data set [2] of 2 µg/mL. For the same compound, in data set [3], the “MHC (minimal hemolysis concentration)” value came to 16 µg/mL. KKFATIAKKFINYLW [Peptide Q4-15]: the minimal inhibitory concentration (MIC) in data set [2] came to 8 µg/mL. Moreover, the “MHC (minimal hemolysis concentration)” value in data set [3] worked out at 128 µg/mL.

In the case of KKFATIAKKFINYLW-NH2 [Peptide Q4-15a], the minimal inhibitory concentration (MIC) in data set [2] was found to be 4 µg/mL. Also, in data set [3], the “MHC (minimal hemolysis concentration)” value was determined as 16 µg/mL. Consider LL37, for which, in data set [6], the “Effect on two Acinetobacter baumannii biofilms” value was “inhibitory effect”. In the case of penicillin, the “Susceptibility of the MDR ETEC strain” value in data set [1] is recorded as “resistant”. Still for that read-out and setting: for polymyxin B the value was “moderately susceptible”.

The MIC is the lowest concentration that inhibits growth of the organism. A high value points to weaker potency.

The values above are taken from publication PMC8070514, “Antibacterial and Antibiofilm Activities of Novel Antimicrobial Peptides against Multidrug-Resistant Enterotoxigenic Escherichia Coli” (International Journal of Molecular Sciences, 2021).
